System: α7 integrin promoter
Assay: muscle cell-based assay: α7βgal+/− myoblasts/myotubes, LacZ reporter, β-galactosidase cleavage of FDG
Set-up: species or system mouse; Results in α7+/− β-galactosidase assay: scale not given here
How it was run: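 Primary α7βgal+/− mouse myoblasts (LacZ knocked into α7 integrin exon 1, promoter retained), differentiated; promoter activity read as β-galactosidase conversion of non-fluorescent FDG to fluorescein. Hits followed by dose-response, western analysis and myostatin counterscreen.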

Row | SMILES | Results in α7+/− β-galactosidase assay (Myotubes, 0.5 uM) | Results in α7+/− β-galactosidase assay (Myotubes, 1 uM) | Results in α7+/− β-galactosidase assay (Myotubes, 5 uM) | Results in α7+/− β-galactosidase assay (Myotubes, 10 uM) | Results in α7+/− β-galactosidase assay (Myotubes, 20 uM) | Results in α7+/− β-galactosidase assay (Myotubes, 40 uM) | Results in α7+/− β-galactosidase assay (Myoblasts, 0.5 uM) | Results in α7+/− β-galactosidase assay (Myoblasts, 1 uM) | Results in α7+/− β-galactosidase assay (Myoblasts, 5 uM) | Results in α7+/− β-galactosidase assay (Myoblasts, 10 uM) | Results in α7+/− β-galactosidase assay (Myoblasts, 20 uM) | Results in α7+/− β-galactosidase assay (Myoblasts, 40 uM)
1 | Cc1cc(C)c(/C=C2\C(=O)Nc3ccccc32)[nH]1 [drawing 510] | −0.2205 | −0.08303 | −0.5223 | −0.3378 | −0.232 | −0.06918 | – | – | – | – | – | –
2 | Cc1cc(C)c(/C=C2\C(=O)Nc3ccccc32)[nH]1 [drawing 512] | −0.1661 | −0.09119 | −0.3196 | 0.09661 | −0.05031 | 0.151 | – | – | – | – | – | –
3 | Cc1cc(C)c(/C=C2\C(=O)Nc3ccccc32)[nH]1 [drawing 513] | −0.1009 | −0.09355 | 0.09724 | 1.02 | 0.05028 | 0.1378 | – | – | – | – | – | –
4 | O=C1Nc2ccccc2/C1=C1/Nc2ccccc2/C1=N\O [drawing 514] | −0.111 | −0.1122 | −0.8688 | −1.081 | −0.5041 | −0.6481 | – | – | – | – | – | –
5 | CCN(CC)CCNC(=O)c1c(C)[nH]c(CC2C(=O)Nc3ccc(F)cc32)c1C (stereo not drawn) [drawing 515] | −0.04962 | −0.02655 | −0.4387 | −1.86 | −0.9178 | 0.9191 | – | – | – | – | – | –
6 | Cc1[nH]c(/C=C2\C(=O)Nc3ccc([S+](=O)([O-])Cc4c(Cl)cccc4Cl)cc32)c(C)c1C(=O)C1CCCN1CN1CCCC1 (stereo not drawn) [drawing 517] | −0.02882 | −0.08557 | 0.02824 | −0.2838 | −0.348 | −0.7868 | – | – | – | – | – | –
7 | O=C1Nc2ccccc2/C1=C1/Nc2ccccc2/C1=N\O [drawing 518] | 0.09617 | 0.05181 | −0.32 | −0.625 | −0.3346 | −0.5024 | – | – | – | – | – | –
8 | O=C(CNC(=O)c1cccc(F)c1)N/N=C/c1cc(Br)ccc1OCc1ccccc1 [drawing 519] | – | – | – | – | – | – | −0.00993 | 0.03356 | 0.1316 | 0.088 | −0.1376 | 0.1351
9 | Cc1ccccc1-n1c(S)nnc1Cc1cccs1 [drawing 520] | – | – | – | – | – | – | 0.09422 | 0.03188 | 0.1364 | 0.3732 | 0.1056 | 0.01115
10 | CCCCN(CC)Cc1ccc(C/N=C(\S)Nc2ccccc2F)o1 [drawing 521] | – | – | – | – | – | – | 0.07412 | 0.014 | 0.01263 | 0.224 | −0.04634 | −0.1183
11 | COc1ccc2c(c1)C(=C(C#N)C#N)C(=O)N2CCc1ccccc1 [drawing 522] | – | – | – | – | – | – | 0.199 | 0.06668 | −0.157 | 0.1343 | −0.3414 | −0.3915
12 | Cn1cc(CN(CCO)Cc2cccs2)c(-c2ccccc2F)n1 [drawing 523] | – | – | – | – | – | – | 0.1756 | 0.1912 | −0.02798 | 0.2648 | 0.0346 | −0.1208
13 | CCN1C(=O)/C(=C(/C#N)c2nc3ccccc3[nH]2)c2ccccc21 [drawing 524] | – | – | – | – | – | – | −0.1641 | −0.1562 | −0.1933 | −0.1296 | −0.2594 | −0.241
14 | Cc1ccc2c(c1)/C(=C/c1ccc(F)cc1)C(=O)N2 [drawing 525] | – | – | – | – | – | – | 0.006732 | −0.03019 | −0.1238 | −0.2542 | −0.5127 | −0.7544
15 | O=C1Nc2ccccc2/C1=C\c1ccnc2ccccc12 [drawing 526] | – | – | – | – | – | – | 0.2132 | 0.0742 | 0.06287 | 0.1705 | −0.2337 | −0.1575
16 | CCc1c(C)sc(NC(=O)c2ccco2)c1C#N [drawing 527] | – | – | – | – | – | – | 0.01962 | 0.03303 | −0.06162 | −0.02233 | −0.1898 | −0.1237
17 | CCc1c(C)sc(NC(=O)c2ccco2)c1C#N [drawing 528] | – | – | – | – | – | – | 0.08233 | 0.08072 | 0.4585 | 0.07353 | 0.153 | 0.1981
18 | O=C1Nc2ccccc2/C1=C/c1ccccc1Cl [drawing 529] | – | – | – | – | – | – | 0.2214 | 0.2193 | −0.03271 | −0.1355 | −0.2535 | −0.6555
19 | COc1cccc(CN2CCN(Cc3ccco3)CC2)c1.O=C(O)C(=O)O [drawing 530] | – | – | – | – | – | – | 0.2392 | 0.1359 | 0.06492 | −0.03174 | 0.218 | 0.2155
20 | CC(C)Oc1ccc(C(=O)/C=C2\C(=O)Nc3ccccc32)cc1 [drawing 531] | – | – | – | – | – | – | 0.3276 | 0.2225 | −0.3766 | −0.6765 | −0.7978 | −0.9731
21 | COc1ccc(NC(=O)C2(N(C(=O)Cn3nnnc3N)c3ccc(OC)cc3)CCCCC2)cc1 [drawing 532] | – | – | – | – | – | – | 0.2391 | 0.1433 | 0.4897 | −0.1284 | −0.274 | −0.3931
22 | COc1ccc(CCNC(=O)Cn2nnc(C(=O)Nc3ccc(Br)cc3)c2N)cc1OC [drawing 533] | – | – | – | – | – | – | 0.1152 | 0.03848 | −0.06784 | −0.0702 | −0.3276 | −0.5608
23 | CC1(C)Cc2c(cnn2-c2cccc(F)c2)C(NC(=O)CCc2cnccn2)C1 (stereo not drawn) [drawing 534] | – | – | – | – | – | – | 0.2096 | 0.1101 | −0.01619 | −0.03841 | 0.02411 | −0.09429
24 | O=C1Nc2ccccc2/C1=C/c1cccnc1 [drawing 535] | – | – | – | – | – | – | 0.259 | 0.1621 | −0.1077 | −0.235 | −0.5331 | −0.7528
25 | CNC(=O)CSc1nnc(-c2ccc3c(c2)OCO3)n1C [drawing 536] | – | – | – | – | – | – | 0.1583 | 0.04195 | 0.03203 | 0.03846 | −0.04001 | −0.01341
26 | Cc1ccccc1NC(=O)NCCCN1CCN(C)CC1 [drawing 537] | – | – | – | – | – | – | 0.06224 | 0.06912 | 0.01544 | −0.04766 | 0.09447 | 0.1887
27 | CC1(C)Cc2c(c(N3CCOCC3)nc3sc(C(=O)Nc4ccccc4)c(N)c23)CO1 [drawing 538] | – | – | – | – | – | – | 0.2085 | 0.2916 | −0.3961 | −0.7131 | −0.4322 | −0.3536
28 | COc1ccc(N2CCN(C(=O)c3cc(C)on3)CC2)cc1 [drawing 539] | – | – | – | – | – | – | 0.06118 | 0.157 | 0.07966 | 0.01243 | 0.1011 | 0.07367

From patent US10028992B2, “Methods of treating muscular dystrophy” (BOARD OF REGENTS OF THE NEVADA SYSTEM OF HIGHER EDUCATION …, priority 2012, dated 2018)
